What was measured:
[1] = target: T1, Neuropeptide Y receptor type 2 (Homo sapiens, UniProt P49146); format: cell membranes, Membrane; details: kan-ts; note: in other assays of this panel Not Active means under 50% inhibition at 10 µM
T1 sequence (P49146 whole entry): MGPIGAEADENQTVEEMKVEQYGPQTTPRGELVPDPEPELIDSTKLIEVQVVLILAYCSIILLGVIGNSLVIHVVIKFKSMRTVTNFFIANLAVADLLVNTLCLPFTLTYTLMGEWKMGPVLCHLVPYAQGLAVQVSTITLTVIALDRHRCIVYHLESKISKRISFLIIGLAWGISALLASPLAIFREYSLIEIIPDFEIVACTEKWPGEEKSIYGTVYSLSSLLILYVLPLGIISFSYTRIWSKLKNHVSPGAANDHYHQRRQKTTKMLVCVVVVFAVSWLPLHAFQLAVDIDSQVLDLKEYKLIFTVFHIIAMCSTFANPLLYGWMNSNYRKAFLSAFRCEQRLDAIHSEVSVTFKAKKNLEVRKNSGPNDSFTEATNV

Caspase-1 = target: T2, Caspase-1 (Homo sapiens, UniProt P29466); set-up: species or system Escherichia coli;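 note: Caspase-1 enzyme inhibition assay with a peptide substrate; in other assays of this panel Not Active means under 50% inhibition at 10 µM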
T2 sequence (P29466 whole entry): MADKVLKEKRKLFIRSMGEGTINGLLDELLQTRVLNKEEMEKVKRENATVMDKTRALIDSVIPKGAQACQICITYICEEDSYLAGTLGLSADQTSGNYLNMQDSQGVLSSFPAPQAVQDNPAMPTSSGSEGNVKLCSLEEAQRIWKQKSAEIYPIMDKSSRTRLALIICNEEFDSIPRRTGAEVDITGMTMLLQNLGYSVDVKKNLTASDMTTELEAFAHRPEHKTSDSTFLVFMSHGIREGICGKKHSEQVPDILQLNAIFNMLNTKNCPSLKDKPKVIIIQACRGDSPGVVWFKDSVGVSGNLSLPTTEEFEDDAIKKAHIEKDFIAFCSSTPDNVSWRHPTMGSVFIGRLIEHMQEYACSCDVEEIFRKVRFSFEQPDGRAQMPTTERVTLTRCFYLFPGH

[2] = target: T3, Amine oxidase [flavin-containing] A (Homo sapiens, UniProt P21397); test: DRUGMATRIX: Monoamine Oxidase MAO-A enzyme inhibition (substrate: Kynuramine); set-up: species or system BTI-TN-5B1-4; details: bti-tn-5b1-4; Not Active = under 50% inhibition at 10 µM
T3 sequence (P21397 whole entry): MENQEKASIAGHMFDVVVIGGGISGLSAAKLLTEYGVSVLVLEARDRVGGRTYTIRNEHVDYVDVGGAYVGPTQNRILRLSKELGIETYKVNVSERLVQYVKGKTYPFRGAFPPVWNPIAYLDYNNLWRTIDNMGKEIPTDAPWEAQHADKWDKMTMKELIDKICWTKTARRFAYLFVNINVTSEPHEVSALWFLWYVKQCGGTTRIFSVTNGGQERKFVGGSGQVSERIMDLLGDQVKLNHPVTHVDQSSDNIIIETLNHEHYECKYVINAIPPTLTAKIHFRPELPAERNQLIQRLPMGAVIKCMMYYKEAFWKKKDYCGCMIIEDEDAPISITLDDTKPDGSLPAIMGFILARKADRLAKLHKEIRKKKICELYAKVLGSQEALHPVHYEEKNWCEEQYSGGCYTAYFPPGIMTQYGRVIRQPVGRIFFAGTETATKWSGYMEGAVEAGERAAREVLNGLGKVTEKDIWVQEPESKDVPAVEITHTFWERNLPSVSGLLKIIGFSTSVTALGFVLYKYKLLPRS

[3] = target: 5-hydroxytryptamine receptor 2B (Homo sapiens, UniProt P41595); format: cell membranes, CHO-K1, Membrane; note: in other assays of this panel Not Active means under 50% inhibition at 10 µM
Chain of 5-hydroxytryptamine receptor 2B (P41595 whole entry): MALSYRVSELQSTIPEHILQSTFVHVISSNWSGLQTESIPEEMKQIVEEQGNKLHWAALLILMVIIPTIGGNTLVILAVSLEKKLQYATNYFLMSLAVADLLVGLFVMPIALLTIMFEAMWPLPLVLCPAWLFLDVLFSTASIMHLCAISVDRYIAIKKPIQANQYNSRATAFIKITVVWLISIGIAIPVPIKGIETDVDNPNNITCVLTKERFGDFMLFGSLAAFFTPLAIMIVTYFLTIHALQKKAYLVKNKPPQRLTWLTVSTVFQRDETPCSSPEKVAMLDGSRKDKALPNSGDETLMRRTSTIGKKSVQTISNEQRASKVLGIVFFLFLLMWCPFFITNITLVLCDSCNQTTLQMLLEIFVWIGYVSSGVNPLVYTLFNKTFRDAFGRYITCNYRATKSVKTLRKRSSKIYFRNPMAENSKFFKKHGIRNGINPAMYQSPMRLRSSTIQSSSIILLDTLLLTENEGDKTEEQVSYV

B2 bradykinin receptor = target: T4, B2 bradykinin receptor (Homo sapiens, UniProt P30411); format: cell membranes, Membrane; details: chem-1; note: in other assays of this panel Not Active means under 50% inhibition at 10 µM
T4 sequence (P30411 whole entry): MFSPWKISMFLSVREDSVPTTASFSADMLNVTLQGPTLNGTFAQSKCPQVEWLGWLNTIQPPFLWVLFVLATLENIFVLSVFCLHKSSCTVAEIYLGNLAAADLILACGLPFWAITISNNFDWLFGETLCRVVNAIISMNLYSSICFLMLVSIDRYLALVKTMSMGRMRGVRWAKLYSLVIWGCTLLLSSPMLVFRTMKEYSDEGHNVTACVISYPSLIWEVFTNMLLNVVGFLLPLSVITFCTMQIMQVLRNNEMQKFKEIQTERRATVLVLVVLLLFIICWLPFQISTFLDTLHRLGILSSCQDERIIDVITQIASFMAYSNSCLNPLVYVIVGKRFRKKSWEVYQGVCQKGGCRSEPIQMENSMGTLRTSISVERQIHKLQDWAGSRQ

[4] = DRUGMATRIX: Phorbol Ester radioligand binding (ligand: [3H] PDBu); format: cell membranes, Mus musculus, ICR, Brain, Membrane; details: Not Active = under 50% inhibition at 10 µM
[5] = target: Mitogen-activated protein kinase 14 (Homo sapiens, UniProt Q16539); set-up: species or system Escherichia coli
Chain of Mitogen-activated protein kinase 14 (Q16539 whole entry): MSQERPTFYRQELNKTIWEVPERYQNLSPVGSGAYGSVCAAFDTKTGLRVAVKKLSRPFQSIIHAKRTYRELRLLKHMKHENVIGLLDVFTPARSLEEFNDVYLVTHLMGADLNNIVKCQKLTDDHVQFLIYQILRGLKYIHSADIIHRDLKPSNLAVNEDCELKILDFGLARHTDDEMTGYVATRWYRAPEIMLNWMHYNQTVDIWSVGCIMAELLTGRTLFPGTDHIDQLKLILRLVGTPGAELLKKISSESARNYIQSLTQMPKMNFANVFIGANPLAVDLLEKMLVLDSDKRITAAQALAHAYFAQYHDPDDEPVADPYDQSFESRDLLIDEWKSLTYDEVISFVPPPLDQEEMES

[6] = DRUGMATRIX: Serotonin (5-Hydroxytryptamine) 5-HT3 radioligand binding (ligand: [3H] GR-65630); format: cell membranes, Membrane; details: hek293; Not Active = under 50% inhibition at 10 µM
[7] = target: Tyrosine-protein kinase Lck (Homo sapiens, UniProt P06239); test: DRUGMATRIX: Protein Tyrosine Kinase, LCK enzyme inhibition (substrate: Poly(Glu:Tyr)); format: cell-based, Insect cells; details: insect cells; Not Active = under 50% inhibition at 10 µM
Chain of Tyrosine-protein kinase Lck (P06239 whole entry): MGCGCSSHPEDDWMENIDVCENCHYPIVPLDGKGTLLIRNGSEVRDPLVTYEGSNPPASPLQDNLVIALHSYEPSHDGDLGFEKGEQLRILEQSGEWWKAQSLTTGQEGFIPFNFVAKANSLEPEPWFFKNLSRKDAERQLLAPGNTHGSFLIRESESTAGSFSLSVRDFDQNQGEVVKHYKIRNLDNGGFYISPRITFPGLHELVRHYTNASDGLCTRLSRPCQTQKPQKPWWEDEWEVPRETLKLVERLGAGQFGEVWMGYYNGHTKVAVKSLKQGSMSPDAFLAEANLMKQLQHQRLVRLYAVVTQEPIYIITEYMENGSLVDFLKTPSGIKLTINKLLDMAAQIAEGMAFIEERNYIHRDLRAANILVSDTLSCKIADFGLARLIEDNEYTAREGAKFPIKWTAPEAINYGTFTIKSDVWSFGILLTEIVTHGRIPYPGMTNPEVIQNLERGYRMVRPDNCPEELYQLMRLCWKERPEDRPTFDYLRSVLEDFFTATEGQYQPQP

[8] = DRUGMATRIX: GABAA, Chloride Channel, TBOB radioligand binding (ligand: [3H] TBOB); format: cell membranes, Rattus norvegicus, Wistar, Cerebral cortex, Membrane; details: Not Active = under 50% inhibition at 10 µM
[9] = target: T5, Alpha-1A adrenergic receptor (Rattus norvegicus, UniProt P43140); test: DRUGMATRIX: Alpha-1A adrenergic receptor radioligand binding (ligand: prazosin); format: cell membranes, Wistar, Submaxillary gland, Membrane; details: Not Active = under 50% inhibition at 10 µM
T5 sequence (P43140 whole entry): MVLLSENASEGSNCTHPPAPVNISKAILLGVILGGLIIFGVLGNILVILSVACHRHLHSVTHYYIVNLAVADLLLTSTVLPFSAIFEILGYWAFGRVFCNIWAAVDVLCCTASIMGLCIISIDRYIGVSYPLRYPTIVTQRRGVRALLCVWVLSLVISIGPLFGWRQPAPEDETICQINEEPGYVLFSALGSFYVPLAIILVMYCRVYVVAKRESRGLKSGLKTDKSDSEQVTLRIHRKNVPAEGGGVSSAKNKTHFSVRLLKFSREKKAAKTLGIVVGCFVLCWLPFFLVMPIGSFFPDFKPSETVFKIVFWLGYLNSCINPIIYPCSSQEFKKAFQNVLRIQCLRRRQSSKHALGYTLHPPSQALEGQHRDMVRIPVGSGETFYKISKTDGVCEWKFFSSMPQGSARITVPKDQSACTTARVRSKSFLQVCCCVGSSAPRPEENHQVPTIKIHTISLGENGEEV

[10] = target: Prostaglandin G/H synthase 1 (Homo sapiens, UniProt P23219); test: biochemical; format: tissue-based, Platelet; details: platelet
Chain of Prostaglandin G/H synthase 1 (P23219 whole entry): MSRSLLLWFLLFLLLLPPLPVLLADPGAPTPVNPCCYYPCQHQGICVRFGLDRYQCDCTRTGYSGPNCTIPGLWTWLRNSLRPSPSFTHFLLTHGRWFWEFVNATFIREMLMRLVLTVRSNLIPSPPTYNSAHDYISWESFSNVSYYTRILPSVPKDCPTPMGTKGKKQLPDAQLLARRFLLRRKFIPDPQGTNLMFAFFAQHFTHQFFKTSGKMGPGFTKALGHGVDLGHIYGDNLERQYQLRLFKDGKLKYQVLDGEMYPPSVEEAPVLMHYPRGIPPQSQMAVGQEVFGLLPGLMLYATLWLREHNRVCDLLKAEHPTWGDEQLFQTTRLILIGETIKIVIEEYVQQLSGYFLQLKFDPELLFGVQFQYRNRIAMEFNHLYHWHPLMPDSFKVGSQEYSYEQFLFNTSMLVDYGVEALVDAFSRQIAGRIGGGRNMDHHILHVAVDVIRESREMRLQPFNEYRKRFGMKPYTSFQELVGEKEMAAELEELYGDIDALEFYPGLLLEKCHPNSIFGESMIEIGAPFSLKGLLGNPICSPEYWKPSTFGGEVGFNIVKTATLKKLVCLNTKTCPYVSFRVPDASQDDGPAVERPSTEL

Structure (SMILES) | IC50 [1] | IC50 (Caspase-1) | IC50 [2] | IC50 ([3]; cho-k1) | IC50 (B2 bradykinin receptor) | IC50 [4] | Ki [4] | IC50 [5] | IC50 [6] | Ki [6] | IC50 [7] | IC50 [8] | Ki [8] | IC50 [9] | IC50 [10] | also measured
CCCCOC(=O)c1ccc(N)cc1 [BUTAMBEN] | Not Active | Not Active | Not Active | Not Active | Not Active | Not Active | Not Active | Not Active | Not Active | Not Active | Not Active | Not Active | Not Active | Not Active | Not Active | –
CC(=O)O[C@]1(C(C)=O)CC[C@H]2[C@@H]3C=C(Cl)C4=CC(=O)CC[C@]4(C)[C@H]3CC[C@@]21C [CHLORMADINONE ACETATE] | Not Active | Not Active | Not Active | Not Active | Not Active | Not Active | Not Active | Not Active | Not Active | Not Active | Not Active | Not Active | Not Active | Not Active | Not Active | –
O=C(O)c1cn(C2CC2)c2cc(N3CCNCC3)c(F)cc2c1=O [CIPROFLOXACIN] | Not Active | Not Active | Not Active | Not Active | Not Active | Not Active | Not Active | Not Active | Not Active | Not Active | Not Active | Not Active | Not Active | Not Active | Not Active | –
Nc1nc(=O)[nH]cc1F [FLUCYTOSINE] | Not Active | Not Active | Not Active | Not Active | Not Active | Not Active | Not Active | Not Active | Not Active | Not Active | Not Active | Not Active | Not Active | Not Active | Not Active | –
O=C1OC2(c3ccc(O)cc3Oc3cc(O)ccc32)c2ccccc21 [FLUORESCEIN] | Not Active | Not Active | Not Active | Not Active | Not Active | Not Active | Not Active | Not Active | Not Active | Not Active | Not Active | Not Active | Not Active | Not Active | Not Active | –
O=C1OCCN1/N=C/c1ccc([N+](=O)[O-])o1 [FURAZOLIDONE] | Not Active | Not Active | Not Active | Not Active | Not Active | Not Active | Not Active | Not Active | Not Active | Not Active | Not Active | Not Active | Not Active | Not Active | Not Active | –
NCC(=O)O [GLYCINE] | Not Active | Not Active | Not Active | Not Active | Not Active | Not Active | Not Active | Not Active | Not Active | Not Active | Not Active | Not Active | Not Active | Not Active | Not Active | –
O=P1(NCCCl)OCCCN1CCCl (configuration not stated) [IFOSFAMIDE] | Not Active | Not Active | Not Active | Not Active | Not Active | Not Active | Not Active | Not Active | Not Active | Not Active | Not Active | Not Active | Not Active | Not Active | Not Active | –
CNCCC=C1c2ccccc2CCc2ccccc21 [NORTRIPTYLINE] | Not Active | Not Active | Not Active | – | Not Active | Not Active | Not Active | Not Active | Not Active | Not Active | Not Active | Not Active | Not Active | – | Not Active | IC50 ([3]; read-out: IC50): 0.136 µM; Ki ([3]; read-out: Ki): 0.086 µM; IC50 ([9]; read-out: IC50): 0.305 µM; Ki ([9]; read-out: Ki): 0.123 µM
C=C(C)[C@@H]1[C@H]2OC(=O)[C@@H]1[C@]1(O)C[C@H]3O[C@]34C(=O)O[C@H]2[C@]14C [PICROTOXININ] | Not Active | Not Active | Not Active | Not Active | Not Active | Not Active | Not Active | Not Active | Not Active | Not Active | Not Active | – | – | Not Active | Not Active | IC50 ([8]; read-out: IC50): 0.368 µM; Ki ([8]; read-out: Ki): 0.33 µM

— ChEMBL document CHEMBL1909046, “DrugMatrix in vitro pharmacology data”
